Like-named read-outs stand apart in the source and are kept apart here.

From patent US12077503B2, “Substituted cyclic amides and their use as herbicides” (FMC CORPORATION, priority 2015, dated 2024) come the findings set out here.

Common to all, as to assay type: in vivo
In experiment [1] the test system is rice (Oryra sativa). The experiment is described as follows: Test B flooded paddy test. Particulars: Oryza sativa, Flood, 250 g ai/ha; scale of 0 to 100 where 0 is no effect and 100 is complete control; read-out: Rice plant response rating. In outline: (§1)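 Evaluation by eye, against controls, occurred 13–15 d post-treatment in a greenhouse, using a 0 (no effect) to 100 (complete control) scale. Application was into the paddy water, 3 cm deep over the soil, on 2-leaf plants.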

Experiment [2] relates to barnyardgrass (Echinochloa crus-galli). The experiment is described as follows: Test B flooded paddy test. To be noted: Echinochloa crus-galli, Flood, 250 g ai/ha; scale of 0 to 100 where 0 is no effect and 100 is complete control; read-out: Barnyardgrass plant response rating. The procedure, abridged: as §1
The test system of experiment [3] is sedge, umbrella (small-flower umbrella sedge, Cyperus difformis). The experiment can be described thus: Test B flooded paddy test. To be noted: Cyperus difformis, Flood, 250 g ai/ha; scale of 0 to 100 where 0 is no effect and 100 is complete control; read-out: Sedge, Umbrella plant response rating. In outline: as §1
The subject of experiment [4] is ducksalad (Heteranthera limosa). The experiment can be described thus: Test B flooded paddy test. Particulars: Heteranthera limosa, Flood, 250 g ai/ha; scale of 0 to 100 where 0 is no effect and 100 is complete control; read-out: Ducksalad plant response rating. The procedure, abridged:
as §1

The test system of experiment [5] is giant foxtail (Setaria faberii). The experiment is described as follows: Test A postemergence. Particulars: Setaria faberi, post-emergence, 240 h, 125 g ai/ha, postemergence; visual injury after approximately 10 d; 0 to 100 scale (0 no effect, 100 complete control); read-out: Plant response rating, Foxtail, Giant. In outline:
(§2)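 Greenhouse, ~10 d after spray; visual injury vs untreated controls, 0 = no effect, 100 = complete control. Preemergence: directed soil spray over planted seeds. Postemergence: plants 2–10 cm, 1–2 leaf stage. Loam/sand blend. Compound in non-phytotoxic solvent with surfactant.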

The test system of experiment [6] is barnyardgrass (Echinochloa crus-galli). The experiment can be described thus: Test A postemergence. Particulars: Echinochloa crus-galli, post-emergence, 240 h, 125 g ai/ha, postemergence; visual injury after approximately 10 d; 0 to 100 scale (0 no effect, 100 complete control); read-out: Plant response rating, Barnyardgrass. In outline: as §2
The subject of experiment [7] is ryegrass, Italian (Italian ryegrass, Lolium multiflorum). The experiment can be described thus: Test A postemergence. Particulars: Lolium multiflorum, post-emergence, 240 h, 125 g ai/ha, postemergence; visual injury after approximately 10 d; 0 to 100 scale (0 no effect, 100 complete control); read-out: Plant response rating, Ryegrass, Italian. The procedure, abridged:
as §2

In experiment [8] the test system is pigweed (Amaranthus retroflexus). The experiment can be described thus: Test A postemergence. To be noted: Amaranthus retroflexus, post-emergence, 240 h, 125 g ai/ha, postemergence; visual injury after approximately 10 d; 0 to 100 scale (0 no effect, 100 complete control); read-out: Plant response rating, Pigweed. The procedure, abridged: as §2
Experiment [9] concerns giant foxtail (Setaria faberii). The experiment can be described thus: Test A preemergence. Particulars: Setaria faberi, pre-emergence, 240 h; for pest or weed control at 125 g/ha: 125 g ai/ha, visual rating after approx. 10 d, 0 to 100 scale where 0 is no effect and 100 is complete control; for pest or weed control at 500 g/ha: 500 g ai/ha. In outline: as §2
Experiment [10] has as its system barnyardgrass (Echinochloa crus-galli). The experiment is described as follows: Test A preemergence. To be noted: Echinochloa crus-galli, pre-emergence, 240 h; for pest or weed control at 125 g/ha: 125 g ai/ha, visual rating after approx. 10 d, 0 to 100 scale where 0 is no effect and 100 is complete control; for pest or weed control at 500 g/ha: 500 g ai/ha. In outline: as §2

The subject of experiment [11] is Kochia (Kochia scoparia). The experiment is described as follows: Test A preemergence. Particulars: Bassia scoparia, pre-emergence, 240 h; for pest or weed control at 125 g/ha: 125 g ai/ha, visual rating after approx. 10 d, 0 to 100 scale where 0 is no effect and 100 is complete control; for pest or weed control at 500 g/ha: 500 g ai/ha. The procedure, abridged:
as §2

Experiment [12] concerns ragweed (common ragweed, Ambrosia elatior). The experiment can be described thus: Test A preemergence. Particulars: Ambrosia artemisiifolia, pre-emergence, 240 h; for pest or weed control at 125 g/ha: 125 g ai/ha, visual rating after approx. 10 d, 0 to 100 scale where 0 is no effect and 100 is complete control; for pest or weed control at 500 g/ha: 500 g ai/ha. In outline:
as §2

Experiment [13] deals with ryegrass, Italian (Italian ryegrass, Lolium multiflorum). The experiment can be described thus: Test A preemergence. To be noted: Lolium multiflorum, pre-emergence, 240 h; for pest or weed control at 125 g/ha: 125 g ai/ha, visual rating after approx. 10 d, 0 to 100 scale where 0 is no effect and 100 is complete control; for pest or weed control at 500 g/ha: 500 g ai/ha. In outline:
as §2

Experiment [14] deals with pigweed (Amaranthus retroflexus). The experiment can be described thus: Test A preemergence. Particulars: Amaranthus retroflexus, pre-emergence, 240 h; for pest or weed control at 125 g/ha: 125 g ai/ha, visual rating after approx. 10 d, 0 to 100 scale where 0 is no effect and 100 is complete control; for pest or weed control at 500 g/ha: 500 g ai/ha.
Setting [15] is: preemergence, read-out: Plant response rating, Foxtail, Giant.
The mark [16] stands for this setting: preemergence, read-out: Plant response rating, Barnyardgrass.
Where [17] appears, read: preemergence, read-out: Plant response rating, Kochia.
Setting [18] is: preemergence, read-out: Plant response rating, Ragweed.
[19] abbreviates: preemergence, read-out: Plant response rating, Ryegrass, Italian.
Where [20] appears, read: preemergence, read-out: Plant response rating, Pigweed.

For `C=CCN1C[C@H](c2ccc(OC)c(F)c2)[C@@H](C(=O)Nc2cccc(F)c2F)C1=O` [Compound 722], the pest or weed control at 250 g/ha in [1], in [2], in experiment [3] and in experiment [4] was 0% throughout. The pest or weed control at 125 g/ha in experiment [5] is 0%; in experiment [6], 20%; in experiment [7], 0%; in [8], 0%; in [9] (setting [15]), 50%; in [10] (setting [16]), 20%. In addition, the pest or weed control at 125 g/ha in experiment [11] (setting [17]), in experiment [12] (setting [18]), in experiment [13] (setting [19]) and in [14] (setting [20]) was 0% throughout. The pest or weed control at 500 g/ha stood at 80% in experiment [9] (preemergence, 0 to 100 scale, 0 = no effect, 100 = complete control, read-out: Plant response rating, Foxtail, Giant); 80% in experiment [10] (preemergence, 0 to 100 scale, 0 = no effect, 100 = complete control, read-out: Plant response rating, Barnyardgrass); 0% in [11] (preemergence, 0 to 100 scale, 0 = no effect, 100 = complete control, read-out: Plant response rating, Kochia); 0% in [12] (preemergence, 0 to 100 scale, 0 = no effect, 100 = complete control, read-out: Plant response rating, Ragweed); 0% in experiment [13] (preemergence, 0 to 100 scale, 0 = no effect, 100 = complete control, read-out: Plant response rating, Ryegrass, Italian); 0% in experiment [14] (preemergence, 0 to 100 scale, 0 = no effect, 100 = complete control, read-out: Plant response rating, Pigweed).
In the case of `CN1C[C@H](c2cc(F)cc(F)c2)[C@@H](C(=O)Nc2ncccc2F)C1=O` [Compound 783], the pest or weed control at 250 g/ha in experiment [1], in [2], in [3] and in [4] was 0% throughout. Further, the pest or weed control at 125 g/ha in experiment [5], in [6], in [7], in experiment [8], in experiment [9] (setting [15]) and in experiment [10] (setting [16]) was 0% throughout. Also, the pest or weed control at 125 g/ha turned out to be 30% in experiment [11] (setting [17]), 0% in experiment [12] (setting [18]), 0% in [13] (setting [19]) and 0% in [14] (setting [20]). The pest or weed control at 500 g/ha in [9] (Preemergence, visual injury vs untreated controls after approximately 10 d, read-out: Foxtail, Giant plant response rating (0 to 100 scale where 0 is no effect and 100 is complete control)) was 80%; in [10] (Preemergence, visual injury vs untreated controls after approximately 10 d, read-out: Barnyardgrass plant response rating (0 to 100 scale where 0 is no effect and 100 is complete control)), 70%; in experiment [11] (Preemergence, visual injury vs untreated controls after approximately 10 d, read-out: Kochia plant response rating (0 to 100 scale where 0 is no effect and 100 is complete control)), 50%; in [12] (Preemergence, visual injury vs untreated controls after approximately 10 d, read-out: Ragweed plant response rating (0 to 100 scale where 0 is no effect and 100 is complete control)), 0%; in [13] (Preemergence, visual injury vs untreated controls after approximately 10 d, read-out: Ryegrass, Italian plant response rating (0 to 100 scale where 0 is no effect and 100 is complete control)), 0%; in experiment [14] (Preemergence, visual injury vs untreated controls after approximately 10 d, read-out: Pigweed plant response rating (0 to 100 scale where 0 is no effect and 100 is complete control)), 0%.
